Laboratory results: patent publication US9682141B2, “Combination of kinase inhibitors and uses thereof” (INTELLIKINE LLC, priority 2011, dated 2017)
Like-named read-outs stand apart in the source and are kept apart here.

Experiments:
Format in all cases: biochemical
PI3K γ = PI3K γ (Homo sapiens (Human), UniProt P48736); test: PI 3-Kinase (human) HTRF assay, p110γ
mTORC = mTORC (Homo sapiens (Human), UniProt P42345); test: mTOR inhibition assay (radiometric or LanthaScreen TR-FRET)
Procedure: The compounds described herein can be tested against recombinant mTOR (Invitrogen) in an assay containing 50 mM HEPES, pH 7.5, 1 mM EGTA, 10 mM MgCl2, 2.5 mM, 0.01% Tween, 10 μM ATP (2.5 μCi of μ-32P-ATP), and 3 μg/mL BSA. Rat recombinant PHAS-1/4EBP1 (Calbiochem; 2 mg/mL) is used as a substrate. Reactions are terminated by spotting onto nitrocellulose, which is washed with 1M NaCl/1% phosphoric acid (approximately 6 times, 5-10 minutes each). Sheets are dried and the transferred radioactivity quantitated by phosphorimaging.
For instance, one can use Invitrogen's LanthaScreen™ Kinase assay to test the inhibitors of mTOR disclosed herein. This assay is a time resolved FRET platform that measures the phosphorylation of GFP labeled 4EBP1 by mTOR kinase. The kinase reaction is performed in a white 384 well microtitre plate. The total reaction volume is 20 ul per well and the reaction buffer composition is 50 mM HEPES pH7.5, 0.01% Polysorbate 20, 1 mM EGTA, 10 mM MnCl2, and 2 mM DTT. In the first step, each well receives 2 ul of test compound in 20% dimethylsulphoxide resulting in a 2% DMSO final concentration. Next, 8 ul of mTOR diluted in reaction buffer is added per well for a 60 ng/ml final concentration. To start the reaction, 10 ul of an ATP/GFP-4EBP1 mixture (diluted in reaction buffer) is added per well for a final concentration of 10 μM ATP and 0.5 μM GFP-4EBP1. The plate is sealed and incubated for 1 hour at room temperature. […] The plate is sealed, incubated for 1 hour at room temperature, and then read on a plate reader set up for LanthaScreen™ TR-FRET. Data is analyzed and IC50s are generated using GraphPad Prism 5.

PI3K α = PI3K α (Homo sapiens (Human), UniProt P42336); test: PI 3-Kinase (human) HTRF assay, p110α/p85α
Procedure: An exemplary system is PI 3-Kinase (human) HTRF™ Assay from Upstate. […] Briefly, the assay is a time resolved FRET assay that indirectly measures PIP3 product formed by the activity of a PI3-K. The kinase reaction is performed in a microtitre plate (e.g., a 384 well microtitre plate). The total reaction volume is approximately 20 ul per well. In the first step, each well receives 2 ul of test compound in 20% dimethylsulphoxide resulting in a 2% DMSO final concentration. Next, approximately 14.5 ul of a kinase/PIP2 mixture (diluted in 1× reaction buffer) is added per well for a final concentration of 0.25-0.3 ug/ml kinase and 10 μM PIP2. The plate is sealed and incubated for 15 minutes at room temperature. To start the reaction, 3.5 ul of ATP (diluted in 1× reaction buffer) is added per well for a final concentration of 10 μM ATP. The plate is sealed and incubated for 1 hour at room temperature. The reaction is stopped by adding 5 ul of Stop Solution per well and then 5 ul of Detection Mix is added per well. The plate is sealed, incubated for 1 hour at room temperature, and then read on an appropriate plate reader. Data is analyzed and IC50s are generated using GraphPad Prism 5. For PI3K α, β, δ, and γ, the nM concentration of inhibitor to reach IC50 is provided.

PI3K β = PI3K β (Homo sapiens (Human), UniProt P42338); test: PI 3-Kinase (human) HTRF assay, p110β/p85α
[1] = PI 3-Kinase (human) HTRF assay, p110δ/p85α; settings: read-out: PI3K γ IC50
PI3K δ = PI3K δ (Homo sapiens (Human), UniProt O00329); test: PI 3-Kinase (human) HTRF assay, p110δ/p85α
Sequence of PI3K δ (O00329 whole entry): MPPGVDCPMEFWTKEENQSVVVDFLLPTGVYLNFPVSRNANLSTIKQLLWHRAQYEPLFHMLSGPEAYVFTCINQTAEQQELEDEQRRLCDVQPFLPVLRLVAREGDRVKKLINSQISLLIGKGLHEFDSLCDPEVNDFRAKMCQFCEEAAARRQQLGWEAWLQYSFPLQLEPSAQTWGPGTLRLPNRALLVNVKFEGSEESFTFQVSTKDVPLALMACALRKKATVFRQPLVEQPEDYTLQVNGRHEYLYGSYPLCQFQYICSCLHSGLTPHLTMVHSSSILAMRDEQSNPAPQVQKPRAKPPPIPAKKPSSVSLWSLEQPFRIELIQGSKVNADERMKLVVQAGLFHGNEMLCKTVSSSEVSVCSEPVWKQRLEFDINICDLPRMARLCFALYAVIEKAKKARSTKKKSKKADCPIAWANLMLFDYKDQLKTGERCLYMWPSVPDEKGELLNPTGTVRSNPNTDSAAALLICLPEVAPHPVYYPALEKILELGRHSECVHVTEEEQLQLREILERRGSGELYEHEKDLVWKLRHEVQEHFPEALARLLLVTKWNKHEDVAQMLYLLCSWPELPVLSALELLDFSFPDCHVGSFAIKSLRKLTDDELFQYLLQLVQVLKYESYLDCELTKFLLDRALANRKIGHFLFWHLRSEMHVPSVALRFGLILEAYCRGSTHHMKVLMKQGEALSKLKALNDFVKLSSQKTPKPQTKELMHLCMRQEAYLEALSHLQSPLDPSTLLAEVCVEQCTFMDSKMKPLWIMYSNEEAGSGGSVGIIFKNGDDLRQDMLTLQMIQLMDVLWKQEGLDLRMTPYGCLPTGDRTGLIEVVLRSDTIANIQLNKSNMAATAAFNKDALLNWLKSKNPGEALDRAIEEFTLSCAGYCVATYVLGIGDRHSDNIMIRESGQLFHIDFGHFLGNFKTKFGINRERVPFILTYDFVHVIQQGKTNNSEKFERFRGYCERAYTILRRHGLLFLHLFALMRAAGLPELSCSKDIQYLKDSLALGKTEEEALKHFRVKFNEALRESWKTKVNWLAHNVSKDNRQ
Sequence of PI3K δ (P27986 whole entry partner): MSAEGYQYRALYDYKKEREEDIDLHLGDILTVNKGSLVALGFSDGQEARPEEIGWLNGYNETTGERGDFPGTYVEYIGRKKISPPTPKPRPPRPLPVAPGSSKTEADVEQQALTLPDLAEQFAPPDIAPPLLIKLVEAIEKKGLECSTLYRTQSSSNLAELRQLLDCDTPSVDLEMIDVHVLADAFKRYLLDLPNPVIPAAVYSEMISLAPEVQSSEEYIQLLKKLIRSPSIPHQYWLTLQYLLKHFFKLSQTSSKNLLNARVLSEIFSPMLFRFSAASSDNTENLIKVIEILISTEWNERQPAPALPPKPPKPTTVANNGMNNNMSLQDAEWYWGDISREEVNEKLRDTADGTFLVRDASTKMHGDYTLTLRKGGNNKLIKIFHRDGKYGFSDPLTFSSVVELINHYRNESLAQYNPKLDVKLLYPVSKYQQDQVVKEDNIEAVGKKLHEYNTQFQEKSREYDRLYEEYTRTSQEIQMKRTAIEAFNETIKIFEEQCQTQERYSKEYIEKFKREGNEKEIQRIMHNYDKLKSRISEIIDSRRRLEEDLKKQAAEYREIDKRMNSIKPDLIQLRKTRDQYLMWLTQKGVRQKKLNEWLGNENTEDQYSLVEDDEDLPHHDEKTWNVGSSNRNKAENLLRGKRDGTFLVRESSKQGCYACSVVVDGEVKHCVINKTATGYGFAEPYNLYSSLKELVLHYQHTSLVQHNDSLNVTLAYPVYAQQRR

Sequence of mTORC (P42345 1360-2549): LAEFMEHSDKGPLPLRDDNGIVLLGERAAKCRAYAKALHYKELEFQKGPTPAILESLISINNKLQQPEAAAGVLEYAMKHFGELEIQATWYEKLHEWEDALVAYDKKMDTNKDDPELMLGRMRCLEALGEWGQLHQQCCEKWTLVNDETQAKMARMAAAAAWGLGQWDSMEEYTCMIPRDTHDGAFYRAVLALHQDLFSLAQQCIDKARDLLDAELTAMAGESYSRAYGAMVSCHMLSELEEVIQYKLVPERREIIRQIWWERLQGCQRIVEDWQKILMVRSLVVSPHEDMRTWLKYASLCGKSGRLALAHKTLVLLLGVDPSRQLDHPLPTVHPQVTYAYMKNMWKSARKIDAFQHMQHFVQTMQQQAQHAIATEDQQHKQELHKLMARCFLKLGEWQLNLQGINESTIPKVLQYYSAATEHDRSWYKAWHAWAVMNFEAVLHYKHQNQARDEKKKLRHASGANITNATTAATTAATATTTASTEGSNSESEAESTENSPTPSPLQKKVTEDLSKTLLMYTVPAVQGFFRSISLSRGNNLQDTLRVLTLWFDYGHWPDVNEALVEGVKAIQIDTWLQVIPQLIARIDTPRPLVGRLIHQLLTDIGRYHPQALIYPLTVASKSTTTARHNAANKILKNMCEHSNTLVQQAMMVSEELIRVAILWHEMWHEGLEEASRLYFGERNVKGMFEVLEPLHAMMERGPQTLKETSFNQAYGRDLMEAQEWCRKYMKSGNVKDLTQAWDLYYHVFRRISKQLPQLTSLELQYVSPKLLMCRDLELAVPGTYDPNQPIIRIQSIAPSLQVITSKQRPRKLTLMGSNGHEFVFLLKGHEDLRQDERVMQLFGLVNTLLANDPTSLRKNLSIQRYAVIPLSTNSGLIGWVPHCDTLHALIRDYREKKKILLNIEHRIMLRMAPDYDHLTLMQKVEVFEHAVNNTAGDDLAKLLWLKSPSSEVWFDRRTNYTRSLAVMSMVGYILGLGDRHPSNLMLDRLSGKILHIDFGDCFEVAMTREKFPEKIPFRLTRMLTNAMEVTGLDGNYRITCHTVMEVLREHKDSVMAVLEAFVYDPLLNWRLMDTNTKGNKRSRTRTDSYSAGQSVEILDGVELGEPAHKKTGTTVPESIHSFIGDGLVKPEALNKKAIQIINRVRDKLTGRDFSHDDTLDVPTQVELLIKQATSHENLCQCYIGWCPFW
Sequence of PI3K β (P42338 whole entry): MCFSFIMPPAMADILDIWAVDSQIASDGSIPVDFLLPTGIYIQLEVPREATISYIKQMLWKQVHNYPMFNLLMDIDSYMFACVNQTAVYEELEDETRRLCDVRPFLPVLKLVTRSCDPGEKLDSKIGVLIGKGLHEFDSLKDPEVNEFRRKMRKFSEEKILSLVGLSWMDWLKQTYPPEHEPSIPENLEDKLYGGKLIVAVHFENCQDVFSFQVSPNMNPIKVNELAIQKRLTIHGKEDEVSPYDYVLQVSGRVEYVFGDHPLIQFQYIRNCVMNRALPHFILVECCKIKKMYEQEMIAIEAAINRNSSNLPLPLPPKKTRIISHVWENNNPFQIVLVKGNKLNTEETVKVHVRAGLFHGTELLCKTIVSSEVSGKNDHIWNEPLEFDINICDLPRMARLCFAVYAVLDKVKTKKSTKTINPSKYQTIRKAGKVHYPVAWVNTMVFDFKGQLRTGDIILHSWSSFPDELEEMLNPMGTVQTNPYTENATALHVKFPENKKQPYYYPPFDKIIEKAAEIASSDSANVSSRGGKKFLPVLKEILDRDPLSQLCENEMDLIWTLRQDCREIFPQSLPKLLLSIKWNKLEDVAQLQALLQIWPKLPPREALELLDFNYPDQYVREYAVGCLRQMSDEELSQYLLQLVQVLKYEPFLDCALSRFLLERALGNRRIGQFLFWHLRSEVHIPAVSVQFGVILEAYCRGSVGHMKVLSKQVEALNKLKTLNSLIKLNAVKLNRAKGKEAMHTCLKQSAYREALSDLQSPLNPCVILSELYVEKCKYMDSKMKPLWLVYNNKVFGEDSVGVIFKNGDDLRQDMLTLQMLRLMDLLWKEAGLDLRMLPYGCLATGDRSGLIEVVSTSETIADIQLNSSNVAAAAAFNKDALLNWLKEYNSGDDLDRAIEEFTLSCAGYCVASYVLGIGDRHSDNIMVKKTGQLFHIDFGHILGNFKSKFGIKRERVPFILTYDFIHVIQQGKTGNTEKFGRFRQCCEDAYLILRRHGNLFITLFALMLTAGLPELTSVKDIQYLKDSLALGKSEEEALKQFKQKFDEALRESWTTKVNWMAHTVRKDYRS
Sequence of PI3K β (P27986 whole entry partner): as the sequence (P27986 whole entry partner) above

SMILES | IC50 (PI3K γ; read-out: PI3K γ IC50) | IC50 (mTORC) | IC50 (PI3K α) | IC50 (PI3K β) | IC50 (PI3K γ; read-out: PI3K δ IC50) | IC50 [1] | IC50 (PI3K δ)
CN1CCN(c2cnc3ccc(-c4ccc5oc(N)nc5c4)cc3n2)CC1 | < 1 µM | > 10 µM | < 0.1 µM | < 0.1 µM |  |  | 
N#Cc1cnc2ccc(-c3ccc4oc(N)nc4c3)cc2c1Cl |  | < 1 µM |  |  |  |  | 
Nc1nc2cc(-c3ccc4ncc(C(=O)N[C@H]5CC[C@H](O)CC5)n4c3)ccc2o1 | < 0.1 µM | > 10 µM |  | < 10 µM |  |  | 
Nc1nc2cc(-c3ccc4nc(N)sc4c3)ccc2o1 |  | < 10 µM | < 1 µM | < 1 µM | < 1 µM | < 10 µM | 
Nc1ncc(-c2ccc3oc(N)nc3c2)cn1 |  | > 10 µM | > 10 µM | > 10 µM | < 10 µM | > 10 µM | 
CC(=O)Nc1cn2cc(-c3ccc4oc(N)nc4c3)ccc2n1 |  | < 1 µM | < 0.1 µM | < 1 µM | < 0.1 µM | < 0.1 µM | 
CC(=O)Nc1ncc(-c2ccc3oc(N)nc3c2)s1 |  | < 10 µM | < 10 µM | > 10 µM | < 10 µM | < 10 µM | 
Nc1nc2cc(-c3cccc4[nH]nc(N)c34)ccc2o1 |  | > 10 µM | > 10 µM | > 10 µM | > 10 µM |  | 
CC(C)Oc1nc(-c2ccc3oc(N)nc3c2)cnc1N |  | < 1 µM | < 10 µM | < 10 µM | < 10 µM |  | 
Nc1nc2cc(-c3ccc4oc(N)nc4c3)ccc2o1 |  | < 10 µM | < 1 µM |  | < 0.1 µM | < 10 µM | 
Nc1nc2cc(-c3ccc4nc(N)oc4c3)ccc2o1 |  | < 10 µM | < 1 µM |  | < 0.1 µM | < 1 µM | 
Nc1nc2cc(-c3ccc4ncc(N5CC[C@H](O)C5)nc4c3)ccc2o1 |  | < 10 µM | < 0.1 µM | < 1 µM | < 1 µM | > 10 µM | 
C[C@@H]1CN(C(=O)C2CN(c3cnc4ccc(-c5ccc6oc(N)nc6c5)cc4n3)C2)CCN1 |  | < 10 µM | < 0.1 µM | < 10 µM | < 1 µM | < 1 µM | 
CC(C)[C@@H](N)C(=O)N1CCN(c2cnc3ccc(-c4ccc5oc(N)nc5c4)cc3n2)CC1 |  | < 10 µM | < 0.1 µM | < 1 µM | < 1 µM | < 1 µM | 
Nc1nc2cc(-c3ccc4ncc(N5CC(N6CCOCC6)C5)nc4c3)ccc2o1 |  | < 1 µM | < 0.1 µM | > 10 µM | < 10 µM | > 10 µM | 
CN1CCN(C2CN(c3cnc4ccc(-c5ccc6oc(N)nc6c5)cc4n3)C2)CC1 |  | < 10 µM | < 0.1 µM | < 10 µM | < 10 µM | < 10 µM | 
Nc1nc2cc(-c3ccc4ncc(N5CC(C(=O)N6CCN(C7CC7)CC6)C5)nc4c3)ccc2o1 |  | < 10 µM | < 0.1 µM | < 10 µM | < 1 µM | < 1 µM | 
CN1CCN(c2cnc3ccc(-c4ccc5oc(N)nc5c4)cc3n2)CC1=O |  | < 10 µM | < 0.1 µM | < 1 µM | < 1 µM | < 10 µM | 
C[C@H]1CN(c2cnc3ccc(-c4ccc5oc(N)nc5c4)nc3n2)CCN1 | < 10 µM |  | < 1 µM | < 0.1 µM |  |  | < 10 µM
CCOC(=O)N1CC=C(c2cnc3ccc(-c4ccc5oc(N)nc5c4)nc3n2)CC1 | < 0.1 µM |  | < 0.1 µM | < 10 µM |  |  | < 10 µM
Nc1nc2cc(-c3ccc4ncc(C5=CCOCC5)nc4n3)ccc2o1 | < 0.1 µM |  | < 0.1 µM | < 10 µM |  |  | > 10 µM
C[C@@H]1CN(C2CN(c3cnc4ccc(-c5ccc6oc(N)nc6c5)nc4n3)C2)CCN1 | > 10 µM | > 10 µM | < 0.1 µM | > 10 µM |  |  | 
Nc1nc2cc(-c3ccc4ncc(N5CCC(F)(F)CC5)nc4n3)ccc2o1 | < 0.1 µM |  | < 0.1 µM | > 10 µM |  |  | > 10 µM
C[C@@H]1COCCN1c1cnc2ccc(-c3ccc4oc(N)nc4c3)nc2n1 | < 0.1 µM |  | < 0.1 µM | < 10 µM |  |  | < 10 µM
C[C@H]1COCCN1c1cnc2ccc(-c3ccc4oc(N)nc4c3)nc2n1 | < 0.1 µM |  | < 0.1 µM | < 10 µM |  |  | > 10 µM
Nc1nc2cc(-c3ccc4ncc(-c5cccnc5)cc4n3)ccc2o1 | < 0.1 µM |  | < 0.1 µM | < 10 µM |  |  | < 10 µM
CC1(C)CN(C2CN(c3cnc4ccc(-c5ccc6oc(N)nc6c5)nc4n3)C2)CCO1 | < 10 µM |  | < 1 µM | > 10 µM |  |  | > 10 µM
